Activity calls are given as the source filed them. The calls are words filed in the database; no cut-off is given here.
What was measured:
[1] = Cytotoxicity against human KB-3-1 cells after 72 hrs by MTS assay; type: functional; details: KB 3-1, 72 h
[2] = tested on: HL-60; test: Antiproliferative activity against human HL60 cells at 10 uM after 24 hrs by trypan blue exclusion assay in absence of CuCl2; type: functional, cell-based
[3] = Cytotoxicity against human KB3 cells; type: functional
[4] = tested on: HCT-116; test: Cytotoxicity against human HCT116 cells; type: functional
[5] = tested on: HCT-15; test: Cytotoxicity against human HCT15 cells expressing P-gp; type: functional
[6] = tested on: MCF7; test: Cytotoxicity against human MCF7 cells; type: functional
[7] = tested on: MCF7; test: Cytotoxicity against multidrug-resistant human MCF7 cells expressing P-gp; type: functional
[8] = tested on: SK-OV-3; test: Cytotoxicity against human SKOV3 cells; type: functional
[9] = tested on: PC-3; test: Cytotoxicity against human PC3 cells; type: functional
[10] = tested on: A549; test: Cytotoxicity against human A549 cells; type: functional
[11] = tested on: SF-268; test: Cytotoxicity against human SF268 cells; type: functional
[12] = tested on: HL-60; test: Cytotoxicity against human HL60 cells; type: functional
[13] = tested on: K562; test: Cytotoxicity against human K562 cells; type: functional
[14] = tested on: HepG2; test: Cytotoxicity against human HepG2 cells; type: functional
[15] = organism: Ovis aries; test: Inhibition of lamb brain tubulin assembly at 37 deg C
[16] = Inhibition of trypsin-like activity in proteasome; type: subcellular
[17] = Inhibition of chymotrypsin-like activity in proteasome; type: subcellular
[18] = tested on: HL-60; test: Induction of apoptosis in human HL60 cells assessed as activation of caspase 3/7 at 0.01 uM; type: functional, cell-based
[19] = tested on: HL-60; test: Induction of apoptosis in human HL60 cells assessed as activation of caspase 3/7 at 0.1 uM; type: functional, cell-based
[20] = tested on: HL-60; test: Induction of apoptosis in human HL60 cells assessed as activation of caspase 3/7 at 1 uM; type: functional, cell-based
[21] = tested on: HL-60; test: Induction of apoptosis in human HL60 cells assessed as activation of caspase 8 at 1 uM; type: functional, cell-based
[22] = tested on: HL-60; test: Induction of apoptosis in human HL60 cells assessed as activation of caspase 9 at 1 uM; type: functional, cell-based
[23] = tested on: HL-60; test: Induction of apoptosis in human HL60 cells assessed as activation of caspase 3/7; type: functional, cell-based
[24] = tested on: HL-60; test: Antiproliferative activity against human HL60 cells at 10 uM after 24 hrs by trypan blue exclusion assay in presence of CuCl2; type: functional, cell-based
[25] = organism: Ovis aries; test: Inhibition of lamb brain microtubule disassembly at 4 deg C
[26] = tested on: HL-60; test: Induction of apoptosis in human HL60 cells assessed as PARP cleavage at 10 uM after 24 hrs by Western blot; type: functional, cell-based

Oc1ccc(CNCc2cccc3ccccc23)c2cccnc12 gave a CC50 [1] of over 1000 nM.

For Oc1c(I)cc(Cl)c2cccnc12, the Activity [2] was “inactive”.

Work on CC(C)(C)OC(=O)N(Cc1ccc(C(F)(F)F)cc1)Cc1ccc(O)c2ncccc12 yielded a CC50 [1] of 10000 nM.

In the case of Oc1ccc(CNCc2ccccc2)c2cccnc12, the CC50 [1] is reported as over 1000 nM.

Cc1ccc(CNCc2ccc(O)c3ncccc23)cc1 gave a CC50 [1] of over 10000 nM.

Oc1ccc(CNCc2ccccc2C(F)(F)F)c2cccnc12 gave a CC50 [1] of 200 nM.

Work on Cc1ccc([C@H](C)N(Cc2ccc(O)c3ncccc23)Cc2ccc(O)c3ncccc23)cc1 yielded a CC50 [1] of 41 nM.

CC(=O)O[C@@]12CO[C@@H]1C[C@H](O)[C@@]1(C)C(=O)[C@H](O)C3=C(C)[C@@H](OC(=O)[C@H](O)[C@@H](NC(=O)OC(C)(C)C)c4ccccc4)C[C@@](O)([C@@H](OC(=O)c4ccccc4)[C@H]21)C3(C)C [DOCETAXEL] showed a CC50 [1] of 0.25 nM.

For Cc1ccc([C@H](C)N(Cc2ccc(O)c3ncccc23)C(=O)OC(C)(C)C)cc1, the CC50 [1] was over 1000 nM.

Oc1ccc(CN(Cc2ccccc2)Cc2ccc(O)c3ncccc23)c2cccnc12 gave a CC50 [1] of 15 nM.

Work on Oc1ccc(CN(Cc2ccc(C(F)(F)F)cc2)Cc2ccc(O)c3ncccc23)c2cccnc12 yielded a CC50 [1] of 1.3 nM, a CC50 [3] of 1.5 nM and a CC50 [4] of 1 nM. The CC50 [5] was 0.8 nM, the CC50 [6] was 1.2 nM and the CC50 [7] was 4.7 nM. It also gave a CC50 [8] of 3 nM, a CC50 [9] of 206 nM and a CC50 [10] of 0.9 nM. The CC50 [11] was 91 nM, the CC50 [12] was 10.9 nM and the CC50 [13] was 5.2 nM. For the same molecule, the CC50 [14] was 22.8 nM, the Activity [15] was “inactive” and the Activity [2] was “inactive”. For the same molecule, the Activity [16] was “inactive”, the Activity [17] was “inactive” and the Activity [18] was “inactive”. For the same molecule, the Activity [19] was “Active”, the Activity [20] was “Active” and the Activity [21] was “inactive”. For the same molecule, the Activity [22] was “inactive”, the Activity [23] was “Dose-dependent effect” and the Activity [24] was “Active”. The Activity [25] was “Active” and the Activity [26] was “inactive”.

Molecule O=[N+]([O-])c1ccc(CN(Cc2ccc(O)c3ncccc23)Cc2ccc(O)c3ncccc23)cc1 has a CC50 [1] of 42 nM.

CC(=O)O[C@H]1C(=O)[C@@]2(C)[C@H]([C@H](OC(=O)c3ccccc3)[C@]3(O)C[C@H](OC(=O)[C@H](O)[C@@H](NC(=O)c4ccccc4)c4ccccc4)C(C)=C1C3(C)C)[C@]1(OC(C)=O)CO[C@@H]1C[C@@H]2O [PACLITAXEL] gave a CC50 [3] of 0.1 nM.

Molecule Oc1ccc(CN(Cc2cccc3ccccc23)Cc2ccc(O)c3ncccc23)c2cccnc12 has a CC50 [1] of 5 nM.

Molecule Oc1ccc(CNCc2ccc(C(F)(F)F)cc2)c2cccnc12 has a CC50 [1] of 10000 nM.

Cc1ccc(CN(Cc2ccc(O)c3ncccc23)Cc2ccc(O)c3ncccc23)cc1 gave a CC50 [1] of 2.6 nM, a CC50 [3] of 8.5 nM and a CC50 [4] of 3.2 nM. For the same molecule, the CC50 [5] was 6 nM, the CC50 [6] was 5.4 nM and the CC50 [7] was 37.3 nM. It also gave a CC50 [8] of 8 nM, a CC50 [9] of 343 nM and a CC50 [10] of 4.3 nM. The CC50 [11] was 178 nM, the CC50 [12] was 32.7 nM and the CC50 [13] was 40.8 nM. The CC50 [14] was 52.1 nM, the Activity [2] was “inactive” and the Activity [16] was “inactive”. For the same molecule, the Activity [17] was “inactive”, the Activity [18] was “inactive” and the Activity [19] was “Active”. For the same molecule, the Activity [20] was “Active”, the Activity [21] was “inactive” and the Activity [22] was “inactive”. The Activity [23] was “Dose-dependent effect”, the Activity [24] was “Active” and the Activity [26] was “inactive”.

CC(C)(C)OC(=O)N(Cc1ccccc1C(F)(F)F)Cc1ccc(O)c2ncccc12 showed a CC50 [1] of 1000 nM.

Oc1ccc(CN(Cc2ccccc2C(F)(F)F)Cc2ccc(O)c3ncccc23)c2cccnc12 showed a CC50 [1] of 123 nM.

In the case of Cc1ccc([C@H](C)NCc2ccc(O)c3ncccc23)cc1, the CC50 [1] is reported as over 1000 nM.

Reference: ChEMBL document CHEMBL1153855, “Discovery of a new family of bis-8-hydroxyquinoline substituted benzylamines with pro-apoptotic activity in cancer cells: synthesis, structure-activity relationship, and action mechanism studies” (2009)
